Earlier results in patent US20220054402A1, “COMPOSITIONS AND METHODS FOR EXTRACTING, STABILIZING, AND MAN[…] DOSAGE FORMS OF PSILOCIN, P[…], ENTHEOGENS, AND MEDICINAL MUSHROOMS AS NANO-D[…] DELIVERY STRUCTURES” (priority 2020, published 2022).

Assays:
[1] = oral ingestion
[2] = biological target: serotonin 5-HT2A receptor (Homo sapiens, UniProt P28223); conditions: psilocin versus psilocybin
[3] = β-glucan embedded in chitin cell walls

serotonin 5-HT2A receptor, sequence (P28223 whole entry): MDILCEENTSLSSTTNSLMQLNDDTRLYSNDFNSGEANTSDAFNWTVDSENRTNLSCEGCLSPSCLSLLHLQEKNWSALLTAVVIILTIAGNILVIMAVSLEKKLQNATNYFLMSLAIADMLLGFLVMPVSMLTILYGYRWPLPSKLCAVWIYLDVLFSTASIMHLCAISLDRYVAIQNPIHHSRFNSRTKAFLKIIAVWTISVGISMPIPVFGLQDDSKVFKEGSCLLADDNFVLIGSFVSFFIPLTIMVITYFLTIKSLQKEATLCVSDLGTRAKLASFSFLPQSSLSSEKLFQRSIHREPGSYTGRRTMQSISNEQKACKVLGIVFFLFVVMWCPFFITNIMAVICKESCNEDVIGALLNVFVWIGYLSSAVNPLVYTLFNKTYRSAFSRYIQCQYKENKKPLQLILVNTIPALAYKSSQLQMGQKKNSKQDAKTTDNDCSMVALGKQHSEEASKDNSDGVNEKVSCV

## COc1cc(CCN)cc(OC)c1OC [Mescaline, 5-trimethoxyphenethylamine]
[1]
  reported onset time of effects from ingesting: 60 to 180 min

## CN(C)CCc1c[nH]c2cccc(O)c12 [Psilocin, 4-hydroxy-NN-dimethyltryptamine]
[2]
  affinity for binding the serotonin 5-HT2A receptor relative to psilocybin: more than 200 times

## β-glucan
[3]
  bioavailability: less than 5%
